Experimental findings from patent publication US10894817B2, “Fatty acid modified urocortin-2 analogs for the treatment of diabetes and chronic kidney disease” (priority 2016, dated 2021) are described below.

Starred links: 1 amine or outer side, 2 acyl side, 3 side chain; linkers in the order of their positions; H or OH if unused. Non-standard residues stand in square brackets, D forms with d. Residues, ends and D or L forms follow the SMILES beside them. Groups on a side chain read outwards from the residue. *: point of attachment. C20 diacid = O=C(O)CCCCCCCCCCCCCCCCCCC(=O)*; γGlu = O=C(O)[C@H](CCC(=O)[*:2])N[*:1]; NMeI = CC[C@H](C)[C@H](NC)C(=O)O; AEEA = NCCOCCOCC(=O)O

Data set [1] in a line: in vivo. The note with it: male, Sprague Dawley, rat, sc; for half-life: T1/2.
Description: Plasma concentrations of compounds were determined by LC/MS methods. Each method measured the intact compound; peptide plus linked time extension. For each assay, the compound and an analog, used as an internal standard (IS), were extracted from 100% mouse, rat or monkey plasma (25 μl) using acetonitrile. Two distinct layers were formed upon centrifugation with the compound and the IS located in the supernatant layer. An aliquot of the supernatant (80 μl) was transferred to a Thermo Protein Precipitation Plate with water (150 μl) and formic acid (25 μl) followed by mixing. A final 31% acetonitrile in 10% formic acid sample (10 μl) was loaded onto a Supelco Analytical Discovery BIO Wide Pore C5-3 column (5 cm×1 mm, 3 μm). The column effluent was directed into a Thermo Q-Exactive mass spectrometer for detection and quantitation.
Male Sprague Dawley rats were administered a single subcutaneous dose (50 or 150 nmol/kg) of a compound described herein in 20 mM Tris-HCl Tris Buffer (pH 8) at a volume of 0.26 or 0.77 mL/kg.
Data set [2] can be described thus: in vivo. The conditions noted are these: male, CD-1, mouse, sc, 350 nmol/kg.

Turning to `CC[C@H](C)[C@H](NC)C(=O)N[C@H](C(=O)N[C@@H](CC(C)C)C(=O)N[C@@H](CO)C(=O)N[C@@H](CC(C)C)C(=O)N[C@@H](CC(=O)O)C(=O)N[C@H](C(=O)N1CCC[C@H]1C(=O)N[C@H](C(=O)NCC(=O)N[C@@H](CC(C)C)C(=O)N[C@@H](CC(C)C)C(=O)N[C@@H](CCC(N)=O)C(=O)N[C@H](C(=O)N[C@@H](CC(C)C)C(=O)N[C@@H](CC(C)C)C(=O)N[C@@H](CCC(=O)O)C(=O)N[C@@H](CCC(N)=O)C(=O)N[C@@H](CCC(=O)O)C(=O)N[C@@H](CCCCN)C(=O)N[C@@H](CCC(N)=O)C(=O)N[C@@H](CCC(=O)O)C(=O)N[C@@H](CCCCN)C(=O)N[C@@H](CCC(=O)O)C(=O)N[C@@H](CCCCN)C(=O)N[C@@H](CCC(N)=O)C(=O)N[C@@H](CCC(N)=O)C(=O)N[C@@H](C)C(=O)N[C@@H](CCCCNC(=O)COCCOCCNC(=O)COCCOCCNC(=O)CC[C@H](NC(=O)CC[C@H](NC(=O)CCCCCCCCCCCCCCCCCCC(=O)O)C(=O)O)C(=O)O)C(=O)N[C@H](C(=O)N[C@@H](CC(N)=O)C(=O)N[C@@H](C)C(=O)N[C@@H](CCC(N)=O)C(=O)N[C@H](C(=O)N[C@@H](CC(C)C)C(=O)N[C@@H](C)C(=O)N[C@@H](CCC(N)=O)C(=O)N[C@H](C(N)=O)C(C)C)[C@@H](C)CC)[C@@H](C)O)[C@@H](C)CC)[C@@H](C)CC)C(C)C)C(C)C` [Example 4] (H-[NMeI]VLSLDVPIGLLQILLEQEKQEKEKQQAK([AEEA-AEEA-γGlu-γGlu-C20 diacid])TNAQILAQV-NH2), the CL/F is 0.107 mL/min/kg in the data set “in vivo [1]” (50 nmol/kg), 0.113 mL/min/kg in “in vivo [1]” (150 nmol/kg) and 0.113 mL/min/kg in the data set “in vivo [2]”. Besides, the figures for the half-life in the data set “in vivo [1]” (50 nmol/kg), in the data set “in vivo [1]” (150 nmol/kg) and in the data set “in vivo [2]” were 19 h, 21 h and 18 h, respectively.
